Reference: the NIST ThermoML archive (doi:10.1021/acs.jced.8b00589)
Numbers after ± are expanded uncertainties.

Experiments:
[1] = for surface tension liquid-gas: Ring tensiometer; for viscosity / speed of sound / mass density: 100 kPa, Liquid; for viscosity: Capillary tube (Ostwald / Ubbelohde) method; for speed of sound: Frequency=2 MHz, Linear variable-path acoustic interferometer; for mass density: Vibrating tube method
[2] = xn = mol fraction of the nth substance listed; conditions: x2 = 0; for surface tension liquid-gas: Ring tensiometer; for viscosity / speed of sound / mass density: 100 kPa, Liquid; for viscosity: Capillary tube (Ostwald / Ubbelohde) method; for speed of sound: Frequency=2 MHz, Linear variable-path acoustic interferometer; for mass density: Vibrating tube method

Cc1cccc(C)c1 [1,3-dimethylbenzene]
[1]
Conditions | mass density [kg/m3] | speed of sound [m/s] | surface tension liquid-gas [mN/m] | viscosity [mPa·s]
298.15 K | 859.1 ± 1 | 1320.9 ± 10 | 28.19 ± 0.89 | 0.59 ± 0.03
308.15 K | 849.2 ± 1 | 1280 ± 10 | 26.95 ± 0.89 | 0.525 ± 0.03
318.15 K | 840.4 ± 1 | 1238.2 ± 10 | 25.64 ± 0.88 | 0.482 ± 0.03
323.15 K | 835.8 ± 1 | 1218.4 ± 10 | 25 ± 0.88 | 0.443 ± 0.03
328.15 K | 831.6 ± 1 | 1195.2 ± 10 | 24.37 ± 0.87 | 0.433 ± 0.03

Cc1cccc(C)c1 [1,3-dimethylbenzene] + CCC(C)(C)OC
[2]
Conditions | mass density [kg/m3] | speed of sound [m/s] | surface tension liquid-gas [mN/m] | viscosity [mPa·s]
298.15 K | 859.1 ± 1 | 1320.9 ± 10 | 28.19 ± 0.89 | 0.59 ± 0.03
308.15 K | 849.2 ± 1 | 1280 ± 10 | 26.95 ± 0.89 | 0.525 ± 0.03
318.15 K | 840.4 ± 1 | 1238.2 ± 10 | 25.64 ± 0.88 | 0.482 ± 0.03
323.15 K | 835.8 ± 1 | 1218.4 ± 10 | 25 ± 0.88 | 0.443 ± 0.03
328.15 K | 831.6 ± 1 | 1195.2 ± 10 | 24.37 ± 0.87 | 0.433 ± 0.03

CCC(C)(C)OC [2-methoxy-2-methylbutane]
[1]
Conditions | mass density [kg/m3] | speed of sound [m/s] | surface tension liquid-gas [mN/m] | viscosity [mPa·s]
298.15 K | 765.6 ± 1 | 1118 ± 10 | 19.72 ± 0.85 | 0.424 ± 0.03
308.15 K | 756.3 ± 1 | 1075.6 ± 10 | 18.66 ± 0.85 | 0.39 ± 0.03
318.15 K | 746.3 ± 1 | 1031.1 ± 10 | 17.65 ± 0.85 | 0.357 ± 0.03
323.15 K | 741.4 ± 1 | 1003 ± 10 | 17.13 ± 0.84 | 0.34 ± 0.03
328.15 K | 736.5 ± 1 | 985.24 ± 10 | 16.62 ± 0.84 | 0.328 ± 0.03

CCCCCC [hexane]
[1]
Conditions | mass density [kg/m3] | speed of sound [m/s] | surface tension liquid-gas [mN/m] | viscosity [mPa·s]
298.15 K | 654.7 ± 1 | 1073.2 ± 10 | 17.75 ± 0.85 | 0.295 ± 0.03
308.15 K | 645.4 ± 1 | 1031.2 ± 10 | 16.63 ± 0.84 | 0.263 ± 0.03
318.15 K | 636.2 ± 1 | 981.26 ± 10 | 15.52 ± 0.84 | 0.24 ± 0.03
323.15 K | 631.2 ± 1 | 960.75 ± 10 | 14.96 ± 0.84 | 0.232 ± 0.03
328.15 K | 626.4 ± 1 | 940.39 ± 10 | 14.41 ± 0.83 | 0.223 ± 0.03

CCCCCC [hexane] + CCC(C)(C)OC
[2]
Conditions | mass density [kg/m3] | speed of sound [m/s] | surface tension liquid-gas [mN/m] | viscosity [mPa·s]
298.15 K | 654.7 ± 1 | 1073.2 ± 10 | 17.75 ± 0.85 | 0.295 ± 0.03
308.15 K | 645.4 ± 1 | 1031.2 ± 10 | 16.63 ± 0.84 | 0.263 ± 0.03
318.15 K | 636.2 ± 1 | 981.23 ± 10 | 15.52 ± 0.84 | 0.24 ± 0.03
323.15 K | 631.2 ± 1 | 960.75 ± 10 | 14.96 ± 0.84 | 0.232 ± 0.03
328.15 K | 626.4 ± 1 | 940.35 ± 10 | 14.41 ± 0.83 | 0.223 ± 0.03
